Test results published in patent US20240216384A1, “COMPOSITION FOR PREVENTING OR TREATING METABOLIC DISEASES, CONTAINING TRICYCLO DERIVATIVE COMPOUND” (ONCOCROSS CO.,LTD., priority 2021, published 2024).
Where a name gives a salt, the structure may show the parent alone.

Columns and labels:
TIPARP = TIPARP expression in Hep3B cells upon TCDD; format: cell-based; conditions: for expression of TIPARP: 10 uM, 24 hours, upon TCDD administration (FIG. 7B)
Method: (§1) A MOA study was conducted to identify the mechanism that has a more significant effect than other PARP inhibitors as in Example 3-1. Specifically, the Hep3B cell line was treated with 300 uM H2O2 for 2 hours to generate a ROS rich situation for NASH, and treated with TCDD (Tetrachlorodibenzo-p-dioxin) at 10 nM for 24 hours to induce overexpression of TIPARP. Then, PARylation was identified, and the influences of JPI-289 (10 uM and 24 hours) and PJ34 (10 uM and 24 hours) were identified, respectively. In addition, DMOG, which induces hypoxia by inhibiting the degradation of HIF-1α, a hypoxia-related gene that appears in the early stages of fibrosis, was treated at 1 mM for 24 hours, and the influences of JPI-289 (10 uM and 24 hours) and PJ34 (10 uM and 24 hours) were also identified. In addition, as a positive control group, it was compared with INT-747, a drug that successfully completed phase 3 clinical trials for NASH indication.

HIF-1α [1] = assay: HIF-1α expression in Hep3B cells upon DMOG; format: cell-based; conditions: 10 uM, 24 hours, DMOG 1 mM
Method: as §1

HepG2 cell line = assay: Oleic acid-induced fat accumulation, Oil-Red O staining; format: cell-based; conditions: for fat accumulation inhibitory effect: HepG2 treated with oleic acid, Oil-Red O
Method: By treating the HepG2 cell line, a liver cancer cell line, with oleic acid, fat accumulation was induced into cells, and simultaneously, JPI-289 was treated together to identify the effect of JPI-289 on inhibiting fat accumulation using the Oil-Red O staining method. Herein, INT-747, a drug that succeeded in phase 3 clinical trials for NASH indication, was treated as a positive control group.

PARylation = PARylation in Hep3B cells in NASH environment (H2O2, TCDD); format: cell-based; conditions: 10 uM, 24 hours, 300 uM H2O2, TCDD 10 nM, compared to PJ-34
Method: as §1

HIF-1α [2] = assay: HIF-1α expression in liver of high-fat diet mice, tissue immunochemical analysis; format: in vivo; conditions: JPI-289 50 mpk for 6 weeks, compared to PJ34 (10 mpk) or INT-747 (10 mpk)
Method: To identify the HIF-1 inhibitory effect of INT-747 and JPI-289 in Example 4-1 also in vivo, 5-week-old mice were placed on a high-fat diet (HFD) 1 week after introduction. After 6 weeks, JPI-289 (50 mpk), PJ34 (10 mpk), and INT-747 (10 mpk) were administered for a total of 6 weeks, respectively, and the level of HIF-1α expression in the liver was identified by tissue immunochemical analysis.

PARP1 = PARP1 expression in Hep3B cells upon TCDD; format: cell-based; conditions: compared to INT-747-treated group
Method: as §1

[3] = system: high-fat diet mouse model; assay: High-fat diet animal model: body weight, liver size and weight; format: in vivo; conditions: 6 weeks; for liver size and weight: compared to high-fat diet group
Method: A high-fat diet animal model was created, and after 6 weeks, JPI-289 (JPI) and a positive control group of INT-747 (INT) were administered for a total of 6 weeks (FIG. 12), and body weight, liver size, and weight were checked. As a result, weight loss was identified in the group administered 50 mpk of JPI-289 compared to the high-fat diet group and the INT-747 administration group (FIG. 13). In addition, compared to the high-fat diet group, liver size and weight were decreased in the JPI-289 10 mpk administration group, JPI-289 50 mpk administration group, and INT-747 10 mpk administration group.

3T3L1 cell line = assay: MTT analysis of JPI-289 toxicity in preadipocyte cell line; format: cell-based, mouse; conditions: 0.05 to 5 uM for 24, 48, or 72 hours
Method: The 3T3L1 cell line, a preadipocyte cell line, was dispensed in a 96-well plate, and treated with JPI-289 at a concentration of 0.05 to 5 uM for 24, 48, or 72 hours, and MTT analysis was performed.

STAM™ mouse model [4] = assay: STAM mouse model, long-term (6 weeks) administration; format: in vivo
Method: After administering JPI-289 (10 mg/kg) for a total of 6 weeks from 6 to 12 weeks in the same manner as in Example 6 (FIG. 19), the fibrosis area was checked.
After administering JPI-289 (10 mg/kg) for a total of 6 weeks from 6 to 12 weeks in the same manner as in Example 6, the NAFLD score and ballooning score were checked to identify the degree of inhibition of fatty liver.

TGF-beta2 = TGF-beta2 inhibition at RNA level in Hep3B cells; format: cell-based; conditions: compared to INT-747
Method: as §1
The inhibitory effects of TGF-beta2 (a downstream signal of HIF-1) by JPI-289 and INT-747 in Hep3B cell line were compared at the RNA level under the same conditions as in Example 4-1.

[5] = system: mouse preadipocyte cell line 3T3L1; assay: Adipocyte differentiation / fat accumulation, Oil-Red O staining; format: cell-based; conditions: for differentiation into adipocytes: 3T3L1, Oil-Red O
Method: To induce differentiation of mouse preadipocyte cell line 3T3L1 into adipocytes, DMEM medium containing 10% FBS was treated with insulin, dexamethasone, and isobutylmetylxanthin (IBMX). JPI-289 was treated with a differentiation medium from the start day of inducing differentiation into adipocytes to the end of differentiation. At the end of differentiation, cells were fixed and differentiated adipocytes were stained red using Oil-Red O. The degree of staining was recorded in a photograph, Oil Red was dissolved, and the O.D. value was measured using an ELISA reader.
To identify the inhibitory effect of JPI-289 at a concentration of 5 uM or less on adipocyte differentiation, a re-experiment was performed on the 3T3L1 cell line. Specifically, JPI-289s at concentrations of 0.05, 0.1, 0.25, 0.5, 1, and 2.5 uM were treated together with the differentiation culture medium, respectively, to induce differentiation into adipocytes, and the differentiation into adipocytes and fat accumulation were identified by staining using Oil-Red O.
The fat accumulation inhibitory effects of other PARP inhibitors, 5-AIQ (10 uM), PJ34 (10 uM), and olaparib (5 uM), and JPI-289 (0.25 to 2.5 uM) were compared in the mouse preadipocyte cell line 3T3L1 by the method of Example 2 above.

[6] = system: MCF7, PC3, and HL60 cell lines; assay: MTT analysis of JPI-289 toxicity in multiple cell lines; format: cell-based
Method: To identify the toxicity of JPI-289 to cells, MTT analysis was performed using three cell lines: MCF7, PC3, and HL60 (indicated as Cell 1 to Cell 3 in FIG. 1, respectively). Specifically, each cell line was treated with a control group, a DMSO control group (vehicle control), and JPI-289 (10-ethoxy-8-(morpholinomethyl)-2,3,4,6-tetrahydrobenzo[h][1,6]naphthyridin-5(1H)-one dihydrochloride dihydrate) at concentrations of 0.5, 1, 5, 10, 20, and 40 uM, and then treated with MTT tetrazolium after 24, 48, and 72 hours. Then, the cell viability was measured by forming formazan crystals, dissolving the same using DMSO (dimethyl sulfoxide), and measuring the absorbance using an ELISA reader.

vimentin = assay: Vimentin expression in Hep3B cells upon TCDD; format: cell-based; conditions: compared to INT-747-treated group
Method: as §1

STAM™ mouse model [7] = assay: STAM mouse model, short-term (3 weeks) administration; format: in vivo
Method: Streptozotocin was administered on the second day after birth, and a high-fat diet was administered starting 4 weeks after birth, causing non-alcoholic steatohepatitis (NASH) at 7 to 8 weeks of age. To identify the effect of JPI-289 on NASH and early fibrosis in the STAM™ mouse model (FIG. 15) in which fibrosis is induced by steatohepatitis at 9 to 12 weeks, the drug was administered at 10 mg/kg and 50 mg/kg, respectively for a total of 3 weeks, from 6 to 9 weeks, and the fibrosis-induced area was identified (FIG. 16).
JPI-289 was administered as in Example 6-1, and the NAFLD score and ballooning score were identified as values for evaluating fatty liver.

[8] = 10 mg/kg, 6 weeks, compared to control group

CN(C)CC(=O)Nc1ccc2[nH]c(=O)c3ccccc3c2c1 [PJ34, reference compound]
expression of TIPARP (TIPARP): almost no increase
expression of HIF-1α (HIF-1α [1]): did not decrease

CCOc1cc(CN2CCOCC2)cc2[nH]c(=O)c3c(c12)NCCC3 [JPI-289, 10-ethoxy-8-(morpholinomethyl)-2,3,4,6-tetrahydrobenzo[h][1,6]naphthyridin-5(1H)-one dihydrochloride dihydrate]
concentration dependence of fat accumulation inhibition (HepG2 cell line; HepG2, high concentrations): more effective at high concentrations
fat accumulation inhibitory effect (HepG2 cell line): about 21%
PARylation (PARylation): significantly inhibited
HIF-1α expression in the liver (HIF-1α [2]): significantly decreased
expression of TIPARP (TIPARP): significantly increased
TIPARP (TIPARP; upon TCDD, compared to INT-747-treated group (FIG. 8)): increased
expression of PARP1 (PARP1): significantly decreased
liver size and weight ([3]; 10 mpk): decreased
liver size and weight ([3]; 50 mpk): significant decrease
body weight ([3]; 50 mpk, compared to high-fat diet group and INT-747 group): weight loss
toxicity (MTT analysis) (3T3L1 cell line): no significant effect
fibrosis area (STAM™ mouse model [4]; 10 mg/kg, 6 weeks (6 to 12 weeks), compared to Vehicle): significantly decreased
NAFLD score (STAM™ mouse model [4]; [8]): significantly decreased
ballooning score (STAM™ mouse model [4]; [8]): decreased
overall effect versus control group (STAM™ mouse model [4]; low dose for 6 weeks): superior effect compared to the control group
TGF-beta2 at the RNA level (TGF-beta2): significantly inhibited
expression of HIF-1α (HIF-1α [1]): significantly decreased
fat accumulation decrease ([5]; 250 nM (0.25 uM), 3T3L1): about 37%
differentiation into adipocytes ([5]; 5 uM or higher): inhibited depending on the concentration
fat accumulation in 3T3L1 cells ([5]; 5 uM or higher, Oil-Red O): significantly decreased
differentiation into adipocytes ([5]; 0.05 to 2.5 uM): inhibited depending on the concentration
fat accumulation inhibitory effect compared to olaparib 5 uM ([5]; JPI-289 2.5 uM, 3T3L1): similar
fat accumulation inhibitory effect compared to 5-AIQ (10 uM) and PJ34 (10 uM) ([5]; JPI-289 0.25 to 2.5 uM, 3T3L1): significantly superior
inhibition at 0.05 µM ([5]; Mus musculus, 3T3-L1, 50 nM (0.05 uM), 3T3L1, read-out: differentiation inhibitory effect): ~15%
toxicity to cells (MTT cell viability) ([6]; concentrations of 20 and 40 uM): toxic
toxicity to cells (MTT cell viability) ([6]; up to a concentration of 10 uM, for 72 hours): not toxic
expression of vimentin, a fibrosis marker (vimentin): decreased
NAFLD score (STAM™ mouse model [7]; 10 mg/kg and 50 mg/kg, 3 weeks): decrease
ballooning score (STAM™ mouse model [7]; 10 mg/kg and 50 mg/kg, 3 weeks): decrease
fibrosis area (STAM™ mouse model [7]; 10 mg/kg and 50 mg/kg, 3 weeks (6 to 9 weeks of age)): significantly decreased
overall effect versus control group (STAM™ mouse model [7]; administered for 3 weeks, all dose groups): more effective than the control group

CC[C@H]1[C@@H](O)[C@@H]2[C@H](CC[C@]3(C)[C@@H]([C@H](C)CCC(=O)O)CC[C@@H]23)[C@@]2(C)CC[C@@H](O)C[C@@H]12 [INT-747, reference compound]
fat accumulation inhibitory effect (HepG2 cell line): about 13%
